Experimental data reported in patent publication EP0468504B1, “A novel antibiotic, balhimycin, a process for its production and its use as pharmaceutical” (HOECHST AKTIENGESELLSCHAFT, priority 1990, dated 1992).
Structures can show the parent of a compound that is named as a salt.

Experiments:
Test in all cases: MIC, antibacterial activity
Format in all cases: cell-based
[1] = test system: S. epi. 823 (Teicoplanin R)
S. epi. 825 = test system: S. epi. 825
S. aureus E 690 (MethR) = test system: S. aureus E 690 (MethR)
S. aureus 209 P = test system: S. aureus 209 P
S. aureus 3066 (MethR) = test system: S. aureus 3066 (MethR)
S. aureus (MethR) = test system: S. aureus (MethR)
E. coli 9632 = test system: E. coli 9632
Staph. haemolyticus 712 = test system: Staph. haemolyticus 712
P. vulgaris = test system: P. vulgaris
Ps. aeruginosa = test system: Ps. aeruginosa
[2] = test system: S. haemo. 809 (Teicoplanin R)
Staph. epidermidis 178 = test system: Staph. epidermidis 178
S. faecium D-65 = test system: S. faecium D-65
S. faec. D 21777 = test system: S. faec. D 21777
S. faecium D-59 = test system: S. faecium D-59
[3] = test system: Streptococcus faecalis ATCC 29212
S. faec. D Endococcen = test system: S. faec. D Endococcen

Q: How did the MIC [1] turn out when `CNC(CC(C)C)C(=O)NC1C(=O)NC(CC(N)=O)C(=O)NC2C(=O)NC3C(=O)NC(C(=O)NC(C(=O)O)c4cc(O)cc(O)c4-c4cc3ccc4O)C(OC3C[C@](C)(N)C(=O)C(C)O3)c3ccc(c(Cl)c3)Oc3cc2cc(c3OC2O[C@H](CO)C(O)[C@H](O)C2O)Oc2ccc(cc2Cl)C1O` (some centres unmarked) [Balhimycin trifluoroacetate, Balhimycin] was run?
A: 12.5 µg/mL

Q: And the MIC (S. epi. 825)?
A: 3.12 µg/mL

Q: And the MIC (S. aureus E 690 (MethR))?
A: 0.39 µg/mL

Q: And the MIC (S. aureus 209 P)?
A: 0.39 µg/mL

Q: And the MIC (S. aureus 3066 (MethR))?
A: 0.78 µg/mL

Q: What about the MIC (S. aureus (MethR)) of the same molecule?
A: 0.39 µg/mL

Q: And the MIC (E. coli 9632)?
A: >100 µg/mL

Q: And the MIC (Staph. haemolyticus 712)?
A: 1.56 µg/mL

Q: And the MIC (P. vulgaris)?
A: >100 µg/mL

Q: And the MIC (Ps. aeruginosa)?
A: >100 µg/mL

Q: And the MIC [2]?
A: 6.25 µg/mL

Q: What about the MIC (Staph. epidermidis 178) of the same molecule?
A: 1.56 µg/mL

Q: And the MIC (S. faecium D-65)?
A: 0.78 µg/mL

Q: What about the MIC (S. faec. D 21777) of the same molecule?
A: 0.78 µg/mL

Q: And the MIC (S. faecium D-59)?
A: 1.56 µg/mL

Q: What about the MIC [3] of the same molecule?
A: 1.56 µg/mL

Q: What about the MIC (S. faec. D Endococcen) of the same molecule?
A: 0.78 µg/mL
